Data published in paper PMC12897534, “Design, synthesis, and antiproliferative activity of new 5-ethylsulfonyl-indazole-3-carbohydrazides as dual EGFR/VEGFR-2 kinases inhibitors” (Journal of Enzyme Inhibition and Medicinal Chemistry, 2025).
Values joined by “and” are separate entries in the source; they are usually repeats but may differ in a detail not shown here. Identical values can stand only once. Like-named read-outs stand apart in the source and are kept apart here.

How the values were obtained:
[1] = test system: Bax; test: Apoptotic markers assay, Bax level in A-549 cells; assay type: cell-based, human; conditions: for Bax level: control 60; for Bax fold change: relative to untreated control
Method: (§1) The Bcl-2 protein family, comprising inducer proteins (Bax) and suppressor proteins (Bcl-2), primarily regulates apoptosis.
(§2) Appendix A gives more details.
Bring all reagents, except the human Bax-α Standard, to room temperature for at least 30 minutes prior to opening. The human Bax-α Standard solution should not be left at room temperature for more than 10 minutes. All standards, controls and samples should be run in duplicate. Refer to the Assay Layout Sheet to determine the number of wells to be used and put any remaining wells with the desiccant back into the pouch and seal the ziploc. Store unused wells at 4 °C. Pipet 100 μL of Assay Buffer into the S0 (0 pg/mL standard) wells. Pipet 100 μL of Standards #1 through #6 into the appropriate wells. Pipet 100 μL of the Samples into the appropriate wells. Tap the plate gently to mix the contents. Seal the plate and incubate at room temperature on a plate shaker for 1 hour at ~500 rpm. Empty the contents of the wells and wash by adding 400 μL of wash solution to every well. Repeat the wash 4 more times for a total of 5 washes. After the final wash, empty or aspirate the wells and firmly tap the plate on a lint free paper towel to remove any remaining wash buffer. Pipet 100 μL of yellow Antibody into each well, except the Blank. Seal the plate and incubate at room temperature on a plate shaker for 1 hour at ~500 rpm. Empty the contents of the wells and wash by adding 400 μL of wash solution to every well. Repeat the wash 4 more times for a total of 5 washes. After the final wash, empty or aspirate the wells and firmly tap the plate on a lint free paper towel to remove any remaining wash buffer. Add 100 μL of blue Conjugate to each well, except the Blank. Seal the plate and incubate at room temperature on a plate shaker for 30 minutes at ~500 rpm. Empty the contents of the wells and wash by adding 400 μL of wash solution to every well. Repeat the wash 4 more times for a total of 5 washes. After the final wash, empty or aspirate the wells and firmly tap the plate on a lint free paper towel to remove any remaining wash buffer. Pipet 100 μL of Substrate Solution into each well. Incubate for 30 minutes at room temperature on a plate shaker at ~500 rpm. Pipet 100 μL Stop Solution to each well. Blank the plate reader against the Blank wells, read the optical density at 450 nm. Calculate the average net Optical Density (OD) bound for each standard and sample by subtracting the average Blank OD from the average OD for each standard and sample. Using linear graph paper, plot the Average Net OD for each standard versus Bax concentration in each standard. Approximate a straight line through the points. The concentration of Bax in the unknowns can be determined by interpolation.

[2] = molecular target: VEGFR-2 (Homo sapiens, UniProt P35968); test: VEGFR-2 kinase inhibitory assay
Method: Prepare all the solutions using autoclaved, deionized water and analytical grade reagents. Prepare and store all the reagents at room temperature (unless indicated otherwise). […] The assays used an ULight-labeled peptide substrate and a Europium-W1024-labeled antiphosphotyrosine antibody. The VEGFR-2 was purchased from Carna Biosciences, Inc. (New York, USA). The 384-well plates were obtained from PerkinElmer. […] Negative control: 2.5 μL/well 4×substrate/ATP mixture and 7.5 μL 1×kinase assay buffer in 384-well plate well. […] After incubation at room temperature and dark for 60 min, 5 μL 4×stop solution was added to corresponding wells to react for 5 min and then 5 μL 4×detection mix was added to the corresponding wells of a 384-well plate. The mixture was centrifugally mixed and stayed for 60 min at room temperature for color development. The plate was read using an Envision plate reader. The inhibition rate (%) = (positive well reading-compound well reading)/(positive well reading-negative well reading)×100. The corresponding IC50 values were calculated using GraphPad Prism 5.0.

[3] = test system: Bcl-2; test: Apoptotic markers assay, Bcl-2 level in A-549 cells; assay type: cell-based, human; conditions: for Bcl-2 level: control 5
Method: as §1, §2
Mix all the reagents thoroughly without foaming before use. Wash the microwells twice with approximately 300 μL Wash Buffer per well with thorough aspiration of microwell contents between washes. Take caution not to scratch the surface of the microwells. After the last wash, empty the wells and tap microwell strips on absorbent pad or paper towel to remove excess Wash Buffer. Use the microwell strips immediately after washing or place upside down on a wet absorbent paper for not longer than 15 minutes. […] Add 100 μL of Sample Diluent in duplicate to all standard wells and to the blank wells. Prepare standard (1:2 dilution) in duplicate ranging from 32 ng/mL to 0.5 ng/mL. Add 100 μL of Sample Diluent, in duplicate, to the blank wells. Add 80 μL of Sample Diluent, in duplicate, to the sample wells. Add 20 μL of each Sample, in duplicate, to the designated wells. Add 50 μL of diluted biotin-conjugate to all wells, including the blank wells. Cover with a plate cover and incubate at room temperature, on a microplate shaker at 100 rpm if available, for 2 hours. Remove plate cover and empty the wells. Wash microwell strips 3 times as described in step 2. Add 100 μL of diluted Streptavidin-HRP to all wells, including the blank wells. Cover with a plate cover and incubate at room temperature, on a microplate shaker at 100 rpm if available, for 1 hour. Remove the plate cover and empty the wells. Wash microwell strips 3 times as described in step 2. Proceed to the next step. Pipette 100 μl of mixed TMB Substrate Solution to all wells, including the blanks. Incubate the microwell strips at room temperature (18° to 25°C) for about 15 minutes, if available on a rotator set at 100 rpm. Avoid direct exposure to intense light. The point, at which the substrate reaction is stopped, is often determined by the ELISA reader. Many ELISA readers record absorbance only up to 2.0 O.D. Therefore, the color development within individual microwells must be watched by the person running the assay and the substrate reaction stopped before positive wells are no longer properly detectable. Stop the enzyme reaction by quickly pipetting 100 μL of Stop Solution into each well, including the blank wells. It is important that the Stop Solution is spread quickly and uniformly throughout the microwells to completely inactivate the enzyme. Results must be read immediately after the Stop Solution is added or within one hour if the microwell strips are stored at 2 - 8°C in the dark. Read the absorbance of each microwell on a spectrophotometer using 450 nm as the primary wavelength.

[4] = test system: four cancer cell lines (A-549, MCF-7, Panc-1, HT-29); test: Antiproliferative assay, mean over the four cancer cell lines (GI50); assay type: cell-based, human; conditions: for IC50: mean IC50 of A-549, MCF-7, Panc-1, HT-29
Excerpt: (§3) Table 1 presents the median inhibitory concentration (IC50) and GI50 (mean IC50) for the four cancer cell lines.
(§4) Refer to Appendix A for additional information.
All cell lines were obtained from ATCC (American Type Cell Culture). […]

[5] = test system: p53; test: Apoptotic markers assay, p53 level in A-549 cells; assay type: cell-based, human; conditions: control 65
Excerpt: as §1
A prime example of a gene product is the p53 protein, which affects apoptosis. The potential for p53 overexpression to induce apoptosis may elucidate the frequent deactivation of p53 enzymes by cancer cells during transformation.
as §2

[6] = test system: HT-29 (colon) cancer cell line; test: Antiproliferative assay, HT-29; assay type: cell-based, human; conditions: read-out: Antiproliferative activity IC50 ± SEM, HT-29
Method: as §3, §4
(§5) To explore the antiproliferative potential of compounds propidium iodide fluorescence assay was performed using different cell lines such as Panc-1 (pancreas cancer cell line) [Panc-1-CTC (RRID:CVCL_VQ69)], MCF-7 (breast cancer cell line) [MCF-7 (RRID:CVCL_0031)], HT-29 (colon cancer cell line) [HT-29 (RRID:CVCL_0320)] and A-549 (epithelial cancer cell line)[A-549 (RRID:CVCL_0023)], respectively. All cell lines were obtained from ATCC (American Type Cell Culture).
(§6) To calculate the total nuclear DNA, a fluorescent dye (propidium iodide, PI) is used which can attach to the DNA, thus offering a quick and precise technique. PI cannot pass through the cell membrane and its signal intensity can be considered as directly proportional to quantity of cellular DNA. Cells whose cell membranes are damaged or have changed permeability are counted as dead ones. The assay was performed by seeding the cells of different cell lines at a density of 3000-7500 cells/well (in 200 μl medium) in culture plates followed by incubation for 24 h at 37 °C in humidified 5% CO2 /95% air atmospheric conditions. The medium was removed; the compounds were added to the plates at 10 μM concentrations (in 0.1% DMSO) in triplicates, followed by incubation for 48 h. DMSO (0.1%) was used as control. After incubation, medium was removed followed by the addition of PI (25 μl, 50 μg/mL in water/medium) to each well of the plates. At -80 °C, the plates were allowed to freeze for 24 h, followed by thawing at 25 °C. A fluorometer (Polar-Star BMG Tech) was used to record the readings at excitation and emission wavelengths of 530 and 620 nm for each well. The percentage cytotoxicity of compounds was calculated using the following formula: […]

[7] = test system: MCF-7 (breast) cancer cell line; test: Antiproliferative assay, MCF-7; assay type: cell-based, human; conditions: for IC50: read-out: Antiproliferative activity IC50 ± SEM, MCF-7; for Fold more potent than erlotinib (MCF-7 IC50): MCF-7 IC50 ratio to erlotinib
Method: as §3, §4, §5, §6

[8] = test system: Panc-1 (pancreatic) cancer cell line; test: Antiproliferative assay, Panc-1; assay type: cell-based, human; conditions: read-out: Antiproliferative activity IC50 ± SEM, Panc-1
Method: as §3, §4, §5, §6

[9] = Cell viability assay (MTT) on normal cell line; conditions: human, MCF-10A normal mammary gland epithelial cells
Method: (§7) The viability of the investigated compounds was assessed using the normal human mammary gland epithelial cell line MCF-10A. After four days of incubation on MCF-10A cells with 50 µM of each examined compound, cell viability was assessed using the MTT test[46]^,[47].
(§8) The viability of 7a–o was determined using the normal human mammary gland epithelial (MCF-10A) cell line^46,[47].
(§9) MTT assay was performed to investigate the effect of the synthesized compounds on mammary epithelial cells (MCF-10A). The cells were propagated in medium consisting of Ham's F-12 medium/ Dulbecco's modified Eagle's medium (DMEM) (1:1) supplemented with 10% foetal calf serum (GIBCO, UK), 2 mM glutamine, insulin (10 μg/mL), hydrocortisone (500 ng/mL) and epidermal growth factor (20 ng/mL). Trypsin ethylenediamine tetra acetic acid (EDTA) was used to passage the cells after every 2-3 days. 96-well flat-bottomed cell culture plates were used to seed the cells at a density of 10^4 cells mL^-1. The medium was aspirated from all the wells of culture plates after 24 h followed by the addition of synthesized compounds (in 200 μL medium to yield a final concentration of 0.1% (v/v) dimethyl sulfoxide) into individual wells of the plates. Four wells were designated to a single compound. The plates were allowed to incubate at 37°C for 96 h. Afterwards, the medium was aspirated and 3-[4,5-dimethylthiazol-2-yl]-2,5-diphenyltetrazolium bromide (MTT) (0.4 mg/mL) in medium was added to each well and subsequently incubated for 3 h. The medium was aspirated and 150 μL dimethyl sulfoxide (DMSO) was added to each well. The plates were vortexed followed by the measurement of absorbance at 540 nm on a microplate reader.

[10] = molecular target: EGFR (Homo sapiens, UniProt P00533); test: EGFR-TK inhibitory assay
Method: To record autophosphorylation level, EGFR kinase assay was carried out on the basis of DELFIA/Time-Resolved Fluorometry. […] Each compound (10 μL) was incubated with recombinant enzyme (10 μL, 5 ng for EGFR, 1:80 dilution in 100 mM HEPES) for 10 min at 25 °C, subsequent to the addition of 5X buffer (10 μL, containing 2 mM MnCl2, 100 μM Na3VO4, 20 mM HEPES and 1 mM DTT) and ATP-MgCl2 (20 μL, containing 0.1 mM ATP and 50 mM MgCl2) and incubation for 1h. The negative and positive controls were included in each plate by the incubation of enzyme either with or without ATP-MgCl2. The liquid was removed after incubation and the plates were washed thrice using a wash buffer. The Europium-tagged antiphosphotyrosine antibody (75 μL, 400 ng) was added to each well followed by incubation of 1h and then washing of the plates using buffer. […] The autophosphorylation percentage inhibition by compounds was calculated using the following equation:
The majority of signals detected by antiphosphotyrosine antibody were from EGFR because the enzyme preparation contained low impurities.

[11] = test system: A-549 (lung) cancer cell line; test: Antiproliferative assay, A-549; assay type: cell-based, human; conditions: read-out: Antiproliferative activity IC50 ± SEM, A-549
Method: as §3, §4, §5, §6

[12] = test system: MCF-10A; conditions: 50 µM
Method: as §7, §8, §9

[13] = molecular target: VEGFR-2 kinase; conditions: read-out: VEGFR-2 kinase IC50; cited from earlier work
[14] = test system: wild-type EGFR; parameters: method as in PMID 26275028; conditions: cited from earlier work
[15] = test system: EGFR^T790M; parameters: method as in PMID 26275028; conditions: cited from earlier work
[16] = test system: EGFR^L858R; parameters: method as in PMID 26275028; conditions: cited from earlier work

VEGFR-2, sequence (P35968 20-1356): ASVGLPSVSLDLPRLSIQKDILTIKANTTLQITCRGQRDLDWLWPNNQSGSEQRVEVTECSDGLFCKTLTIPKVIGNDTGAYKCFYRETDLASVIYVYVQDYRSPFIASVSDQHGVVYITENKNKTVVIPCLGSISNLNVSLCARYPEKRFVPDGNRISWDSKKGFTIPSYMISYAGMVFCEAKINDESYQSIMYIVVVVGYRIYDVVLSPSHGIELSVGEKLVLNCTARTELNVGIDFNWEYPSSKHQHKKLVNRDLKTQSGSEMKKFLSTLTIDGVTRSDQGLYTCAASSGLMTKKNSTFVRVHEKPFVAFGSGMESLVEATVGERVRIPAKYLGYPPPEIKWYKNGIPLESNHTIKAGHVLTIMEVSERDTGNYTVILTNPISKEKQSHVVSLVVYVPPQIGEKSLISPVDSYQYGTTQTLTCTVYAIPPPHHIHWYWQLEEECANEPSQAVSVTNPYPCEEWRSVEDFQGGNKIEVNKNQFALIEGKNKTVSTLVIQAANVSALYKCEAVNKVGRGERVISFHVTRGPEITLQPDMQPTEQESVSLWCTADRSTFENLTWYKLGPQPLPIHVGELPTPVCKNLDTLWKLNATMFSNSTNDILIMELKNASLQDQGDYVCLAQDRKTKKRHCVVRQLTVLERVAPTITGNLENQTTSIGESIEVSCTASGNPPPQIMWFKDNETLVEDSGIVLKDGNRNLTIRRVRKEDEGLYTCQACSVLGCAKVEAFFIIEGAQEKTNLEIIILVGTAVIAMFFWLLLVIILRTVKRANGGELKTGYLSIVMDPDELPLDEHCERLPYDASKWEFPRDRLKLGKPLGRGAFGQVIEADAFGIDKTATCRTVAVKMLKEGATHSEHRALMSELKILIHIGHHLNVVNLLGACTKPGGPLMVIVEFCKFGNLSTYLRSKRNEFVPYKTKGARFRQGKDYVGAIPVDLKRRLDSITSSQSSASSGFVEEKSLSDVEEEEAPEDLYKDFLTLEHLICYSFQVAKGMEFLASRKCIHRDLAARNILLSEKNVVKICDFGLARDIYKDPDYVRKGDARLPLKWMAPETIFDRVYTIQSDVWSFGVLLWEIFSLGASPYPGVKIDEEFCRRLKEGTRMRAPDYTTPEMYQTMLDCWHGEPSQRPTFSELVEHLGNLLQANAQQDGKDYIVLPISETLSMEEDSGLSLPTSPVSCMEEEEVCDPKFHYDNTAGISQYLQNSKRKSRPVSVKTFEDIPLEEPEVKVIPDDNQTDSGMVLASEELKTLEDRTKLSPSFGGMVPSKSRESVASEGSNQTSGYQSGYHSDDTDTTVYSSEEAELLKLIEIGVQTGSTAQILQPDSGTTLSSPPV

| Compound | Bax level [1] | Bax fold change [1] | IC50 [2] | Bcl-2 level [3] | IC50 ([4]; Homo sapiens) | p53 level [5] | IC50 ([6]; Homo sapiens) | IC50 ([7]; Homo sapiens, MCF7) | IC50 ([8]; Homo sapiens, PANC-1) | viability at 96 h, 50 µM [9] | IC50 ([10]; EGFR inhibition IC50 ± SEM) | IC50 ([11]; Homo sapiens, A549) | further results |
| --- | --- | --- | --- | --- | --- | --- | --- | --- | --- | --- | --- | --- | --- |
| CCS(=O)(=O)c1ccc2[nH]nc(C(=O)N/N=C/c3ccn(C)n3)c2c1 [Compound 7o, (E)-5-(ethylsulfonyl)-N′-((1-methyl-1H-pyrazol-3-yl)methylene)-1H-indazole-3-carbohydrazide] | 480 ± 2 pg/mL | 8 fold | 31 ± 2 nM | 1.80 ± 0.001 ng/mL | 30 nM | 285 ± 2 pg/mL | 29 ± 1 nM | 32 ± 1 nM | 29 ± 1 nM | 92% | 76 ± 4 nM | 29 ± 1 nM | Fold more potent than erlotinib (MCF-7 IC50) [7]: 1.25 fold |
| (E)-5-(ethylsulfonyl)-N′-(3-methoxybenzylidene)-1H-indazole-3-carbohydrazide [Compound 7l] |  |  |  |  |  |  |  |  |  |  |  |  | IC50 ([2]; read-out: VEGFR-2 inhibition IC50 ± SEM, kinase assay): 45 ± 3 nM; Cell viability % [12]: 91%; Fold less potent than 7k (GI50) ([4]; GI50 ratio to 7k): 1.7 fold; IC50 [4]: 42 nM; IC50 [6]: 42 ± 4 nM; IC50 ([7]; MCF-7): 43 ± 3 nM; IC50 ([8]; Panc-1): 42 ± 4 nM; IC50 ([10]; read-out: EGFR inhibition IC50 ± SEM): 87 ± 5 nM; IC50 ([11]; A-549): 41 ± 3 nM |
| CCS(=O)(=O)c1ccc2[nH]nc(C(=O)N/N=C/c3nc4ccccc4s3)c2c1 [Compound 7j, (E)-N′-(benzo[d]thiazol-2-ylmethylene)-5-(ethylsulfonyl)-1H-indazole-3-carbohydrazide] | 505 ± 3 pg/mL | 8 fold and 8.5 fold | 27 ± 1 nM | 1.50 ± 0.001 ng/mL | 27 nM | 340 ± 2 pg/mL | 27 ± 1 nM | 28 ± 1 nM | 26 ± 1 nM | 91% | 74 ± 4 nM | 26 ± 1 nM |  |
| CN(c1ccc2cn(C)nc2c1)c1ccnc(Nc2ccc(OC(F)(F)F)cc2)n1 [Compound IX] |  |  |  |  |  |  |  |  |  |  |  |  | IC50 [13]: 12 nM |
| C=CC(=O)Nc1cccc(Oc2nc(Nc3n[nH]c4ccccc34)cc(N3CCN(C)CC3)n2)c1 [Compound VIII] |  |  |  |  |  |  |  |  |  |  |  |  | IC50 [14]: 1700 nM; IC50 [15]: 70 nM; IC50 [16]: 500 nM |
| CCS(=O)(=O)c1ccc2[nH]nc(C(=O)N/N=C/c3ccc(OC)nc3)c2c1 [Compound 7k, (E)-5-(ethylsulfonyl)-N′-((6-methoxypyridin-3-yl)methylene)-1H-indazole-3-carbohydrazide] | 540 ± 3 pg/mL | 9 fold | 21 ± 1 nM | 1.20 ± 0.001 ng/mL | 25 nM | 371 ± 2 pg/mL | 24 ± 1 nM | 26 ± 1 nM | 25 ± 1 nM | 93% | 71 ± 4 nM | 24 ± 1 nM | Bcl-2 fold reduction ([3]; relative to untreated control): 4.2 fold; Fold more effective than erlotinib (GI50) ([4]; GI50 ratio to erlotinib): 1.3 fold; Fold more potent than erlotinib (MCF-7 IC50) [7]: 1.5 fold |
